# Measured values as given in publication PMC12257073 (Cancer Research Communications, 2025).
# Assay: Adverse events (treatment-related and all-cause) and dose-limiting toxicities, NCI CTCAE version 4.0
# Details: all-cause adverse events
# [1] = Group 1, Skin and subcutaneous tissue disorders
# Protocol: The phase 1b portion of the study used a standard 3 + 3 dose-escalation design with a starting dose level 1 (DL1) of 37 mg oral daily TP-0903 (Supplementary Table S2) based on experience with 50 mg oral daily as a single agent in patients with solid tumors ([25]). Dose-limiting toxicities (DLT) were evaluated to establish the dose brought forward for an expansion cohort (phase 2). Seven patients were enrolled in the phase 1b study, which was completed in January 2021 with the decision to move forward with an expansion cohort of 37 mg oral daily. Across the phase 1b and phase 2 studies, 15 patients were enrolled and started on 37 mg TP-0903 oral daily on days 1 to 21 (group 1). […] One additional patient was enrolled at this time but was inadvertently started on 25 mg TP-0903 oral daily on days 1 to 21. […] In May 2021, an amendment was approved to allow enrollment of a new group 2 at 25mg oral daily on days 1 to 21 of TP-0903 (DL-1) in stage 2 of the phase 2 study.
# Clinical response was assessed according to the modified 2017 European LeukemiaNet AML criteria ([26]). The primary endpoint was achievement of CR within six cycles of therapy. Secondary endpoints included toxicity, duration of response, OS, and the proportion of eligible patients who effectively transitioned to allogeneic stem cell transplantation. Exploratory endpoints included pharmacokinetics (PK), correlative genetic, and biochemical data; correlations between morphologic remission, spectral flow cytometry, and mutational remission; and duration of remission or survival. […] Adverse events (AE) were graded according to the NCI Common Terminology Criteria for Adverse Events version 4.0 ([27]).
smiles,measurement,setting,value
"CN1CCN(Cc2ccc(Nc3ncc(Cl)c(Nc4ccccc4S(=O)(=O)N(C)C)n3)cc2)CC1.O=C(O)C(O)C(O)C(=O)O.O=C(O)C(O)C(O)C(=O)O [TP-0903, 2-(5-chloro-2-(4-((4-methylpiperazin-1-yl)methyl)phenylamino)pyrimidin-4-yl)amino-N,N-dimethylbenzene-1-sulfonamide di-tartrate salt]","Atrial fibrillation with RVR, All","Group 1, Missing Categories",0 (0)
same,"Atrial fibrillation with RVR, Grade 1 2","Group 1, Missing Categories",0 (0)
same,"Atrial fibrillation with RVR, Grade 3+","Group 1, Missing Categories",0 (0)
same,"COPD exacerbation, All","Group 1, Missing Categories",1 (6.7)
same,"COPD exacerbation, Grade 1 2","Group 1, Missing Categories",1 (6.7)
same,"COPD exacerbation, Grade 3+","Group 1, Missing Categories",0 (0)
same,"Chest pain (non-cardiac), All","Group 1, Missing Categories",0 (0)
same,"Chest pain (non-cardiac), Grade 1 2","Group 1, Missing Categories",0 (0)
same,"Chest pain (non-cardiac), Grade 3+","Group 1, Missing Categories",0 (0)
same,"Death, NOS, All","Group 1, Missing Categories",1 (6.7)
same,"Death, NOS, Grade 1 2","Group 1, Missing Categories",0 (0)
same,"Death, NOS, Grade 3+","Group 1, Missing Categories",1 (6.7)
same,"Diarrhea (intermittent), All","Group 1, Missing Categories",0 (0)
same,"Diarrhea (intermittent), Grade 1 2","Group 1, Missing Categories",0 (0)
same,"Diarrhea (intermittent), Grade 3+","Group 1, Missing Categories",0 (0)
same,"Hand-Foot Syndrome, All","Group 1, Missing Categories",1 (6.7)
same,"Hand-Foot Syndrome, Grade 1 2","Group 1, Missing Categories",1 (6.7)
same,"Hand-Foot Syndrome, Grade 3+","Group 1, Missing Categories",0 (0)
same,"Hip Pain, All","Group 1, Missing Categories",1 (6.7)
same,"Hip Pain, Grade 1 2","Group 1, Missing Categories",1 (6.7)
same,"Hip Pain, Grade 3+","Group 1, Missing Categories",0 (0)
same,"Hypokalemia (intermittent), All","Group 1, Missing Categories",0 (0)
same,"Hypokalemia (intermittent), Grade 1 2","Group 1, Missing Categories",0 (0)
same,"Hypokalemia (intermittent), Grade 3+","Group 1, Missing Categories",0 (0)
same,"Hypotension (intermittent), All","Group 1, Missing Categories",0 (0)
same,"Hypotension (intermittent), Grade 1 2","Group 1, Missing Categories",0 (0)
same,"Hypotension (intermittent), Grade 3+","Group 1, Missing Categories",0 (0)
same,"INR - Increased, All","Group 1, Missing Categories",1 (6.7)
same,"INR - Increased, Grade 1 2","Group 1, Missing Categories",1 (6.7)
same,"INR - Increased, Grade 3+","Group 1, Missing Categories",0 (0)
same,"Inflammation (bilateral knee), All","Group 1, Missing Categories",0 (0)
same,"Inflammation (bilateral knee), Grade 1 2","Group 1, Missing Categories",0 (0)
same,"Inflammation (bilateral knee), Grade 3+","Group 1, Missing Categories",0 (0)
same,"Itching (intermittent), All","Group 1, Missing Categories",0 (0)
same,"Itching (intermittent), Grade 1 2","Group 1, Missing Categories",0 (0)
same,"Itching (intermittent), Grade 3+","Group 1, Missing Categories",0 (0)
same,"Microvascular ischemic disease, All","Group 1, Missing Categories",0 (0)
same,"Microvascular ischemic disease, Grade 1 2","Group 1, Missing Categories",0 (0)
same,"Microvascular ischemic disease, Grade 3+","Group 1, Missing Categories",0 (0)
same,"Pain (leg), All","Group 1, Missing Categories",0 (0)
same,"Pain (leg), Grade 1 2","Group 1, Missing Categories",0 (0)
same,"Pain (leg), Grade 3+","Group 1, Missing Categories",0 (0)
same,"Retinal Detachment, All","Group 1, Missing Categories",1 (6.7)
same,"Retinal Detachment, Grade 1 2","Group 1, Missing Categories",1 (6.7)
same,"Retinal Detachment, Grade 3+","Group 1, Missing Categories",0 (0)
same,"Steroid-induced hyperglycemia, All","Group 1, Missing Categories",0 (0)
same,"Steroid-induced hyperglycemia, Grade 1 2","Group 1, Missing Categories",0 (0)
same,"Steroid-induced hyperglycemia, Grade 3+","Group 1, Missing Categories",0 (0)
same,"Symptomatic anemia, All","Group 1, Missing Categories",0 (0)
same,"Symptomatic anemia, Grade 1 2","Group 1, Missing Categories",0 (0)
same,"Symptomatic anemia, Grade 3+","Group 1, Missing Categories",0 (0)
same,"lung fullness, All","Group 1, Missing Categories",1 (6.7)
same,"lung fullness, Grade 1 2","Group 1, Missing Categories",1 (6.7)
same,"lung fullness, Grade 3+","Group 1, Missing Categories",0 (0)
same,"neuropathy (BLE), All","Group 1, Missing Categories",0 (0)
same,"neuropathy (BLE), Grade 1 2","Group 1, Missing Categories",0 (0)
same,"neuropathy (BLE), Grade 3+","Group 1, Missing Categories",0 (0)
same,"pericarditis (intermittent), All","Group 1, Missing Categories",0 (0)
same,"pericarditis (intermittent), Grade 1 2","Group 1, Missing Categories",0 (0)
same,"pericarditis (intermittent), Grade 3+","Group 1, Missing Categories",0 (0)
same,"Dry skin, All",[1],1 (6.7)
same,"Dry skin, Grade 1 2",[1],1 (6.7)
same,"Dry skin, Grade 3+",[1],0 (0)
same,"Ecchymosis, All",[1],1 (6.7)
same,"Ecchymosis, Grade 1 2",[1],1 (6.7)
same,"Ecchymosis, Grade 3+",[1],0 (0)
same,"Erythema nodosum, All",[1],0 (0)
same,"Erythema nodosum, Grade 1 2",[1],0 (0)
same,"Erythema nodosum, Grade 3+",[1],0 (0)
same,"Erythema, All",[1],1 (6.7)
same,"Erythema, Grade 1 2",[1],1 (6.7)
same,"Erythema, Grade 3+",[1],0 (0)
same,"Hyperhidrosis, All",[1],0 (0)
same,"Hyperhidrosis, Grade 1 2",[1],0 (0)
same,"Hyperhidrosis, Grade 3+",[1],0 (0)
same,"Nail discolouration, All",[1],1 (6.7)
same,"Nail discolouration, Grade 1 2",[1],1 (6.7)
same,"Nail discolouration, Grade 3+",[1],0 (0)
same,"Petechiae, All",[1],0 (0)
same,"Petechiae, Grade 1 2",[1],0 (0)
same,"Petechiae, Grade 3+",[1],0 (0)
same,"Photosensitivity reaction, All",[1],1 (6.7)
same,"Photosensitivity reaction, Grade 1 2",[1],1 (6.7)
same,"Photosensitivity reaction, Grade 3+",[1],0 (0)
same,"Pruritus, All",[1],1 (6.7)
same,"Pruritus, Grade 1 2",[1],1 (6.7)
same,"Pruritus, Grade 3+",[1],0 (0)
same,"Rash papular, All",[1],0 (0)
same,"Rash papular, Grade 1 2",[1],0 (0)
same,"Rash papular, Grade 3+",[1],0 (0)
same,"Rash, All",[1],1 (6.7)
same,"Rash, Grade 1 2",[1],1 (6.7)
same,"Rash, Grade 3+",[1],0 (0)
same,"Scab, All",[1],0 (0)
same,"Scab, Grade 1 2",[1],0 (0)
same,"Scab, Grade 3+",[1],0 (0)
same,"Skin disorder, All",[1],1 (6.7)
same,"Skin disorder, Grade 1 2",[1],1 (6.7)
same,"Skin disorder, Grade 3+",[1],0 (0)
same,"Skin lesion, All",[1],0 (0)
same,"Skin lesion, Grade 1 2",[1],0 (0)
same,"Skin lesion, Grade 3+",[1],0 (0)
same,"Swelling face, All",[1],0 (0)
same,"Swelling face, Grade 1 2",[1],0 (0)
same,"Swelling face, Grade 3+",[1],0 (0)
same,"Hypertension, All","Group 1, Vascular disorders",1 (6.7)
same,"Hypertension, Grade 1 2","Group 1, Vascular disorders",0 (0)
same,"Hypertension, Grade 3+","Group 1, Vascular disorders",1 (6.7)
same,"Hypotension, All","Group 1, Vascular disorders",3 (20)
same,"Hypotension, Grade 1 2","Group 1, Vascular disorders",2 (13.3)
same,"Hypotension, Grade 3+","Group 1, Vascular disorders",1 (6.7)
same,"Lymphoedema, All","Group 1, Vascular disorders",0 (0)
same,"Lymphoedema, Grade 1 2","Group 1, Vascular disorders",0 (0)
same,"Lymphoedema, Grade 3+","Group 1, Vascular disorders",0 (0)
same,"Peripheral venous disease, All","Group 1, Vascular disorders",0 (0)
same,"Peripheral venous disease, Grade 1 2","Group 1, Vascular disorders",0 (0)
same,"Peripheral venous disease, Grade 3+","Group 1, Vascular disorders",0 (0)
same,"Atrial fibrillation with RVR, All","Group 2, Missing Categories",1 (8.3)
same,"Atrial fibrillation with RVR, Grade 1 2","Group 2, Missing Categories",1 (8.3)
same,"Atrial fibrillation with RVR, Grade 3+","Group 2, Missing Categories",0 (0)
same,"COPD exacerbation, All","Group 2, Missing Categories",0 (0)
same,"COPD exacerbation, Grade 1 2","Group 2, Missing Categories",0 (0)
same,"COPD exacerbation, Grade 3+","Group 2, Missing Categories",0 (0)
same,"Chest pain (non-cardiac), All","Group 2, Missing Categories",1 (8.3)
same,"Chest pain (non-cardiac), Grade 1 2","Group 2, Missing Categories",1 (8.3)
same,"Chest pain (non-cardiac), Grade 3+","Group 2, Missing Categories",0 (0)
same,"Death, NOS, All","Group 2, Missing Categories",0 (0)
same,"Death, NOS, Grade 1 2","Group 2, Missing Categories",0 (0)
same,"Death, NOS, Grade 3+","Group 2, Missing Categories",0 (0)
same,"Diarrhea (intermittent), All","Group 2, Missing Categories",1 (8.3)
same,"Diarrhea (intermittent), Grade 1 2","Group 2, Missing Categories",1 (8.3)
same,"Diarrhea (intermittent), Grade 3+","Group 2, Missing Categories",0 (0)
same,"Hand-Foot Syndrome, All","Group 2, Missing Categories",0 (0)
same,"Hand-Foot Syndrome, Grade 1 2","Group 2, Missing Categories",0 (0)
same,"Hand-Foot Syndrome, Grade 3+","Group 2, Missing Categories",0 (0)
same,"Hip Pain, All","Group 2, Missing Categories",0 (0)
same,"Hip Pain, Grade 1 2","Group 2, Missing Categories",0 (0)
same,"Hip Pain, Grade 3+","Group 2, Missing Categories",0 (0)
same,"Hypokalemia (intermittent), All","Group 2, Missing Categories",1 (8.3)
same,"Hypokalemia (intermittent), Grade 1 2","Group 2, Missing Categories",1 (8.3)
same,"Hypokalemia (intermittent), Grade 3+","Group 2, Missing Categories",0 (0)
